Legend:
[1] = system: BBCE cells; experiment: bFGF-induced endothelial cell proliferation, analysis by cell counting; format: cell-based; conditions: 120 h, 2.5 ng/ml bFGF, cell counting on day 5 or 6, read-out: half-maximal concentration, inhibition of bFGF-induced proliferation of endothelial cells
Procedure: BBCE cells were seeded (day 0) in 12-well tissue culture plates at a density of 1250 cells/cm^2 (5000 cells/ml/well) and the following day (day 1), wells received 5 μl of the compound dilutions to be tested and 2.5 ng/ml bFGF. This treatment was repeated after two days (day 3). On day 5 or 6, cells in duplicate wells were trypsinized and counted using a Coulter particle counter. Ten dilutions were tested for each compound.
One of the main angiogenic endothelial cell responses is proliferation, in which the effect of F47 was examined. The effect of F47 on bFGF-induced endothelial cell proliferation was studied using cell counting, the results being shown in FIG. 1. […] F47 inhibited both bFGF- and VEGF-induced proliferation of endothelial cells with half-maximal concentrations of 3 and <1 μM, respectively.

[2] = system: HUVEC; experiment: VEGF-induced endothelial cell proliferation, analysis by Ki67 immunostaining; format: cell-based; conditions: Homo sapiens, HUVECs, VEGF 50 ng/ml, 6 hr, read-out: half-maximal concentration, inhibition of VEGF-induced proliferation of endothelial cells
Procedure: (§1) Human endothelial cells from umbilical vein (HUVEC) were plated on dishes pre-coated with rat collagen type I (Becton Dickinson Biosciences) and cultured in M199 medium supplemented with 20% fetal calf serum, FCS, 50 ng/ml endothelial cell growth supplement (ECGS, Sigma), heparin […] (Sigma) and 1% penicillin-streptomycin. All media and sera for cell culture were purchased from Invitrogen and were endotoxin-free. F47 was tested for endotoxin content using the QCL1000 kit from BioWhittaker, Inc. Stock solutions of F47 were resuspended in DMSO/ethanol, 1/1 by volume, and added directly to the culture medium. Cells not receiving F47 were incubated in the corresponding volume of DMSO/ethanol.
HUVECs (3×10^4) were grown on cover slips and serum starved in a medium containing 5% FCS for 12 hr. Cells were induced with VEGF (50 ng/ml) in the presence or absence of F47 (10 μM) for 6 hr, fixed in 3.7% paraformaldehyde and processed for indirect immunofluorescence using an anti-Ki67 antibody. Cells were counterstained with Hoechst 33342. […] Ki67 antigen is only expressed in active phases of the cell cycle, but not in G0 phase and the percentage of the Ki67-positive cells represents the proliferating population.
One of the main angiogenic endothelial cell responses is proliferation, in which the effect of F47 was examined. […]

[3] = system: HUVECs; experiment: Endothelial cell survival/apoptosis, FACS analysis (sub-G1 DNA content); format: cell-based, Human; conditions: serum-starved HUVECs (5% FCS), F47 10 μM, 15 hr
Procedure: as §1
For analysis by flow cytometry, HUVECs were serum starved for 15 hr in medium containing 5% FCS and treated with VEGF (50 ng/ml) in the presence or absence of F47 (10 μM for the same period of time). At the end of the incubation time, floating and adherent cells were collected in ice-cold PBS, stained with propidium iodine using the CycleTEST PLUS DNA Reagent kit (Becton Dickinson Biosciences) and processed for flow cytometric analysis using a Becton Dickinson Fluorescence Activated Cell Scanner (FACS). The percentage of cells with a sub-G1 DNA content was considered as the cell population that had undergone apoptosis. […]

[4] = system: Bovine Microvascular Endothelial (BME) cells; experiment: In vitro angiogenesis assay (tube formation in 3D collagen gel); format: cell-based; conditions: 50 μM, pictures after 7 days
Procedure: Collagen was solubilized from rat tail tendons essentially as described by Strom and Michalopoulos, Methods Enzymol 82: 544-555, 1982 and Dharmsathaphorn and Madara, Methods Enzymol. 192: 354-389, 1990. In order to prepare collagen gel, 8 volumes of a cold collagen solution from rat tail tendons (approximately 1.5 mg/ml) were quickly mixed with 1 volume of 10× minimal essential medium (MEM) without bicarbonate and 1 volume of sodium bicarbonate (11.76 mg/ml) on ice. F47 or DMSO was added at final concentration of 50 μM and the mixture was quickly dispensed into 2.00 cm^2-tissue culture wells and it was polymerized at 37° C. for 10 min (Montesano et al., J. Cell Biol. 97: 1648-1652, 1983). Bovine Microvascular Endothelial (BME) cells were seeded onto collagen gel in 500 μl of D-MEM supplemented with 10% Donkey Calf Serum (DCS), 1% glutamine and 1% penicillin-streptomycin, containing F47 (50 μM) or DMSO (control sample). The cells were left at 37° C. for 90-120 min to be attached. Following that, the medium was removed and a second layer of 200 μl of collagen mixture, containing F47 (50 μM) or DMSO, was added on the top. Again, collagen was allowed to polymerize at 37° C. for 10 min. Finally, 500 μl of medium, containing either F47 (50 μM) or DMSO, was added on the top. The ultimate layer of the medium was changed every 2 days renewing thus F47 or DMSO. Pictures were taken after 7 days. […]

[5] = system: A-431 tumors; experiment: A-431 murine tumor xenograft model; format: in vivo, BALB/c nude mice
Procedure: To assess the in vivo antiangiogenic/antitumor activity of F47, female immunodeficient mice (5-8 week-old BALB/c nude mice, Charles River, Milan, Italy) were s.c. inoculated in the right flank with 10^7 A-431 cells in a volume of 50 μl (Morbidelli et al., Clinic Cancer Res, 2003; 9(14): 5358-69). After 9 days, when tumors reached a volume of 170 mm^3, animals were randomly assigned to 2 different experimental protocols (9-10 mice per group). Peritumor treatment with F47 (5 μg/day/mice) or vehicle started. The local peritumor treatment was performed at the dose of 5 μg/50 μl/mouse/day. The vehicle containing the same concentrations of solvents (1% ethanol+1% DMSO) was used as control. Daily treatment was performed for 10 consecutive days. Serial caliper measurements of perpendicular diameters were used to calculate tumor volume using the following formula: (shortest diameter×longest diameter×thickness of the tumor in mm). Data are reported as tumor volume in mm^3. Experiments have been performed in accordance with the guidelines of the European Economic Community for animal care and welfare (EEC Law No. 86/609) and National Ethical Committee. Animals were observed daily for signs of cytotoxicity and were sacrified by CO2 asphyxiation.
At day 10 animals were sacrificed and each tumor was immediately frozen in liquid nitrogen. Seven-μm-thick cryostat sections were stained with hematoxylin and eosin and adjacent sections were used for immunohistochemical staining with the anti-ED-B monoclonal antibody after fixation in absolute cold acetone.
FIG. 5 refers to the antitumor activity of F47 evaluated in nude mice inoculated with A-431 cells and treated after the onset of tumor growth (day 9 from inoculation, >150 mm^3 tumor volume). Peri-tumor treatment with F47 (5 μg/mice/day) or vehicle continued for 10 days. Data are reported as tumor volume in mm^3 (means±SEM of […]).

SMILES: COc1cc2c(cc1O)OCC(c1ccc(O)cc1)C2 (centres unmarked) [F47, 7,4′-dihydroxy-6-methoxy-isoflavan]
- IC50 [1]: 3000 nM
- IC50 [2]: < 1000 nM
- effect on VEGF-induced endothelial cell survival ([3]; VEGF 50 ng/ml): did not inhibit
- level of apoptosis of serum-deprived HUVECs (toxic or apoptotic effects of the compound itself) ([3]; no VEGF): did not further increase
- in vitro angiogenesis (tube formation) in 3D collagen cultures [4]: strongly inhibited
- survival of mice ([5]; day 8, peritumor 5 μg/day/mice): 78%
- presence of tumor vasculature (anti-ED-B antibody staining of B-fibronectin) ([5]; day 10, peritumor 5 μg/day, tumor sections): absent
- tumors smaller than in control mice (tumor volume) ([5]; peritumor 5 μg/day/mice, P<0.01 vs vehicle group at day 6 and 8, 4 animals/group): approximately 50%

Source: US20090312408A1, “ISOFLAVAN AND ISOFLAVENE COMPOUNDS AND THEIR USE AS ANGIOGENESIS INHIBITORS” (priority 2006, published 2009)
